According to US6228861A, “Dihydropyrimidines and uses thereof” (Synaptic Pharmaceutical Corporation, priority 1998, dated 2001):
Where two headings read alike, the source gives them in different places.

Tests used:
[1] = cited from earlier work
[2] = literature, BPH patients; cited from earlier work
[3] = target: T1, α1D Human Adrenergic Receptor (Homo sapiens, UniProt P25100); experiment: [3H]prazosin radioligand binding, cloned human α1D receptor; settings: LM(tk-) membranes, [3H]prazosin 0.5 nM, 37° C., 20 min
T1 construct: The entire coding region of α1D (1719 bp); expressed in transfected cells; membranes
T1 sequence (P25100 1-572): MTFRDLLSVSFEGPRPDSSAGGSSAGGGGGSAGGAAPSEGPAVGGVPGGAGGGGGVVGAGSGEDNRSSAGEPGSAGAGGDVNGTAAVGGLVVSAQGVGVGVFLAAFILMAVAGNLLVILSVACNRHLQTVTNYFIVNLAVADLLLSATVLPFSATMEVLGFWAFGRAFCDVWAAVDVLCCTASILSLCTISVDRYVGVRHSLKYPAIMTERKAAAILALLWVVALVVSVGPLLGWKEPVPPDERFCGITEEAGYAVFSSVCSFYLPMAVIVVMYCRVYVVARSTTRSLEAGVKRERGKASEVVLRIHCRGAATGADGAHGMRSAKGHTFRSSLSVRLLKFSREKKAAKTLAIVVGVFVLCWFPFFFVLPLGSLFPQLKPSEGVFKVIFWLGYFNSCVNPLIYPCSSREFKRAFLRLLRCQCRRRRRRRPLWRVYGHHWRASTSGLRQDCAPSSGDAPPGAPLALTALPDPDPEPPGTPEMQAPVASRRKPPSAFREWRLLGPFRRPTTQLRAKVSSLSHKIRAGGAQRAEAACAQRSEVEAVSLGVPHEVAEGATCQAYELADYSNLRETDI
Experimental: (§1) Binding affinities were measured for selected compounds of the invention at six cloned human alpha-1 and alpha-2 receptor subtypes, as well as at the L-type calcium channel. The protocols for these experiments are given below.
(§2) The activity of compounds at the different human receptors was determined in vitro using cultured cell lines that selectively express the receptor of interest. These cell lines were prepared by transfecting the cloned cDNA or cloned genomic DNA or constructs containing both genomic DNA and cDNA encoding the human α-adrenergic receptors as follows:
The entire coding region of α1D (1719 bp), including 150 base pairs of 5' untranslated sequence t5' UT) and 300 bp of 3' untranslated sequence (3' UT), was cloned into the BamHI and ClaI sites of the polylinker-modified eukaryotic expression vector pCEXV-3, called EXJ.HR. […]
(§3) Transfected cells from culture flasks were scraped into 5 ml of 5 mM Tris-HCl, 5 mM EDTA, pH 7.5, and lysed by sonication. […] Nonspecific binding was determined in the presence of 10 μM phentolamine. […] Inhibition experiments, routinely consisting of 7 concentrations of the tested compounds, were analyzed using a non-linear regression curve-fitting computer program to obtain Ki values.

[4] = target: T2, α1B Human Adrenergic Receptor (Homo sapiens, UniProt P35368); experiment: [3H]prazosin radioligand binding, cloned human α1B receptor; settings: LM(tk-) membranes, [3H]prazosin 0.5 nM, 37° C., 20 min
T2 construct: The entire coding region of α1B (1563 bp); expressed in transfected cells; membranes
T2 sequence (P35368 1-520): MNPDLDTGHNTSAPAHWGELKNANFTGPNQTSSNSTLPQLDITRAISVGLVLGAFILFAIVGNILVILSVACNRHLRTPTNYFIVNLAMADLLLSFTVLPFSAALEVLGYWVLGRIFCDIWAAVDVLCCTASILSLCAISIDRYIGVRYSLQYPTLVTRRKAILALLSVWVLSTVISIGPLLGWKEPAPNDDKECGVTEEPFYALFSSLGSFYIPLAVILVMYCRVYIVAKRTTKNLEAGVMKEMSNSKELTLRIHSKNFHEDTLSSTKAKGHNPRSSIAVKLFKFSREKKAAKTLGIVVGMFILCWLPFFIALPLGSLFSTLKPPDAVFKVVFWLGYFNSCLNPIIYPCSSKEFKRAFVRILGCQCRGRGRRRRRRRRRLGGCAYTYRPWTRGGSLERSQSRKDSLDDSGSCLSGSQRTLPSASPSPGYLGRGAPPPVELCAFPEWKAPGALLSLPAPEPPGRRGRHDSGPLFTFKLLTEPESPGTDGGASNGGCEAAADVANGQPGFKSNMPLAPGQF
Experimental: as §1, §2
(§4) The construct involved the ligation of partial overlapping human lymphocyte genomic and hippocampal cDNA clones: 5' sequence were contained on a 1.2 kb SmaI-XhoI genomic fragment (the vector-derived -BamHI site was used for subcloning instead of the internal insert-derived SmaI site) and 3' sequences were contained on an 1.3 kb XhoI-ClaI cDNA fragment (the ClaI site was from the vector polylinker). […]
as §3

[5] = target: T3, α1A Human Adrenergic Receptor (Homo sapiens, UniProt P35348); experiment: [3H]prazosin radioligand binding, cloned human α1A receptor; settings: LM(tk-) membranes, [3H]prazosin 0.5 nM, 37° C., 20 min
T3 construct: The entire coding region of α1A (1401 bp); expressed in transfected cells; membranes
T3 sequence (P35348 1-466): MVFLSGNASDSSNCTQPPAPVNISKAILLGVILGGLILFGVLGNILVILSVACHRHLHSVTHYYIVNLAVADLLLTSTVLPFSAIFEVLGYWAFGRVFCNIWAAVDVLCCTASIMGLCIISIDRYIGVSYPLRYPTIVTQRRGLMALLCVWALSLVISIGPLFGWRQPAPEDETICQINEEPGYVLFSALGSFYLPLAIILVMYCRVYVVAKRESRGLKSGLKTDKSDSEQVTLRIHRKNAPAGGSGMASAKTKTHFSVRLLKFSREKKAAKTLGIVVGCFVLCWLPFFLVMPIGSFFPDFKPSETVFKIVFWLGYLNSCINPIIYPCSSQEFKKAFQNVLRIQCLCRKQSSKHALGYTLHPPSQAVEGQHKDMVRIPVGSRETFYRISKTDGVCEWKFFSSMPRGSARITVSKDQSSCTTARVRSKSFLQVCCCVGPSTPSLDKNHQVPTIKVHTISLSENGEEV
Experimental: as §1, §2, §4
Transfected cells from culture flasks were scraped into 5 ml of 5 mM Tris-HCl, 5 mM EDTA, pH 7.5, and lysed by sonication. […] Nonspecific binding was determined in the presence of 10 μM phentolamine. […]

Structure (SMILES) | side effects ([1]; literature) | usefulness in BPH [2] | also measured
Clc1cccc(Cl)c1N=C1NCCN1 [clonidine] | dry mouth and sedation | – | –
COc1cc2nc(N3CCN(C(=O)C4CCCO4)CC3)nc(N)c2cc1OC (stereo not shown) [terazosin] | untoward side effects | useful for treating BPH | –
COCC1=C(C(C)=O)C(c2cc(F)c(F)c(F)c2)N(C(=O)NCCN[C@H]2CC[C@](C#N)(c3ccccc3)CC2)C(=O)N1.Cl (stereo partly drawn) [Example 2, cis-6-(3,4,5-Trifluorophenyl)-1-{N-[2-(4-cyano-4 phenyl-cyclohexylamino)ethyl]}-carboxamido-5-acetyl-4-methoxymethyl-2-oxo-1,2,3,6 - tetrahydropyrimidine hydrochloride] | – | – | hα1D pKi [3]: 7.05; hα1B pKi [4]: 7.76; hα1A pKi [5]: 9.51
COc1cc2nc(N3CCN(C(=O)c4ccco4)CC3)nc(N)c2cc1OC [prazosin] | – | useful for treating BPH | side effects ([1]; in vivo): untoward side effects
CC(COc1ccccc1)N(CCCl)Cc1ccccc1 (stereo not shown) [phenoxybenzamine] | significant side effects such as dizziness and asthenia | useful in relieving the symptoms of BPH | –
